US8178077B2, “Drug development target protein and target gene, and method of screening” (Reverse Proteomics Research Institute Co., Ltd., priority 2004, dated 2012)

Assays:
[1] = molecular target: T1, FLJ39196 clone-derived protein (human neurocalcin δ) (Homo sapiens, UniProt P61601); assay: SEC/MS interaction analysis (size exclusion spin column and mass analysis) with FLJ39196 clone-derived protein; format: binding
T1 construct: A human full-length cDNA clone was expressed as a protein with an N-terminal His tag; His tag (N); made in house; host or cells: Escherichia coli BL21star(DE3)pLysS (pDEST17 Gateway expression plasmid)
In short: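 Unmodified, non-immobilized protein was mixed with compound and separated by size exclusion on 384-well Unifilter 100 spin columns packed with 10 μL Bio-Gel P6. The protein-fraction filtrate was collected in 50% acetonitrile, deproteinized, concentrated, redissolved in 10 μL of 50% methanol, and 2 μL was injected for ESI mass analysis of compound spectral intensity.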

[2] = molecular target: T2, FLJ20589 clone-derived protein (human hippocalcin-like protein 1, VILIP-3) (Homo sapiens, UniProt P37235); assay: SEC/MS interaction analysis (size exclusion spin column and mass analysis) with FLJ20589 clone-derived protein; format: binding
T2 construct: A human full-length cDNA clone was expressed as a protein with an N-terminal His tag; His tag (N); made in house; host or cells: Escherichia coli BL21star(DE3)pLysS (pDEST17 Gateway expression plasmid)

[3] = protein 0 μM (protein-free reference), compound 1 μM
[4] = protein 0 μM (protein-free reference), compound 10 μM
[5] = protein 0 μM (protein-free reference), compound 100 μM
[6] = protein 0 μM (protein-free reference), compound 250 μM
[7] = protein 23.75 μM, compound 1 μM
[8] = protein 23.75 μM, compound 10 μM
[9] = protein 23.75 μM, compound 100 μM
[10] = protein 23.75 μM, compound 250 μM
[11] = protein 47.5 μM, compound 10 μM
[12] = protein 47.5 μM, compound 100 μM
[13] = protein 47.5 μM, compound 250 μM

In the case of `CN1CCN(CCCN2c3ccccc3Sc3ccc(C(F)(F)F)cc32)CC1` [Trifluoperazine], the “spectral intensity of the compound in the SEC spin column filtrate (protein fraction)” value (“spectral intensity … (protein fraction)” below) [1, 3] is reported as 6645734, the “spectral intensity … (protein fraction)” value [1, 4] is reported as 7904072 and the “spectral intensity … (protein fraction)” value [1, 5] is reported as 204390563. For the same compound, the “spectral intensity … (protein fraction)” value [1, 6] was 632906281, the “spectral intensity … (protein fraction)” value [1, 7] was 7580781 and the “spectral intensity … (protein fraction)” value [1, 8] was 40058178. For the same compound, the “spectral intensity … (protein fraction)” value [1, 9] was 293702761, the “spectral intensity … (protein fraction)” value [1, 10] was 1292987653 and the “spectral intensity … (protein fraction)” value ([1]; protein 47.5 μM, compound 1 μM) was 7231665. For the same compound, the “spectral intensity … (protein fraction)” value [1, 11] was 14142338, the “spectral intensity … (protein fraction)” value [1, 12] was 5846308 and the “spectral intensity … (protein fraction)” value [1, 13] was 2293500744. For the same compound, the “spectral intensity … (protein fraction)” value [2, 3] was 1499445, the “spectral intensity … (protein fraction)” value [2, 4] was 1420853 and the “spectral intensity … (protein fraction)” value [2, 5] was 2266965. For the same compound, the “spectral intensity … (protein fraction)” value [2, 6] was 4146130, the “spectral intensity … (protein fraction)” value [2, 7] was 469062 and the “spectral intensity … (protein fraction)” value [2, 8] was 893634. For the same compound, the “spectral intensity … (protein fraction)” value [2, 9] was 41947038, the “spectral intensity … (protein fraction)” value [2, 10] was 57062370 and the “spectral intensity … (protein fraction)” value ([2]; protein 47.5 μM, compound 1 μM) was 459554. For the same compound, the “spectral intensity … (protein fraction)” value [2, 11] was 2953415, the “spectral intensity … (protein fraction)” value [2, 12] was 67433540 and the “spectral intensity … (protein fraction)” value [2, 13] was 116228047.
`O=C1CN=C(c2ccccc2)c2cc(Cl)ccc2N1CC1CC1` [prazepam] was tested, and the “spectral intensity … (protein fraction)” value [1, 3] was 45379226, the “spectral intensity … (protein fraction)” value [1, 4] was 21988256 and the “spectral intensity … (protein fraction)” value [1, 5] was 130413200. For the same compound, the “spectral intensity … (protein fraction)” value [1, 6] was 139016191, the “spectral intensity … (protein fraction)” value [1, 7] was 38417587 and the “spectral intensity … (protein fraction)” value [1, 8] was 46660512. The “spectral intensity … (protein fraction)” value [1, 9] was 258681345, the “spectral intensity … (protein fraction)” value [1, 10] was 517983224 and the “spectral intensity … (protein fraction)” value ([1]; protein 47.5 μM, compound 1 μM) was 26479402. For the same compound, the “spectral intensity … (protein fraction)” value [1, 11] was 67670753, the “spectral intensity … (protein fraction)” value [1, 12] was 264065408 and the “spectral intensity … (protein fraction)” value [1, 13] was 706383483. For the same compound, the “spectral intensity … (protein fraction)” value [2, 3] was 563508, the “spectral intensity … (protein fraction)” value [2, 4] was 752185 and the “spectral intensity … (protein fraction)” value [2, 5] was 5911478. The “spectral intensity … (protein fraction)” value [2, 6] was 8158416, the “spectral intensity … (protein fraction)” value [2, 7] was 372254 and the “spectral intensity … (protein fraction)” value [2, 8] was 1912944. The “spectral intensity … (protein fraction)” value [2, 9] was 27662748, the “spectral intensity … (protein fraction)” value [2, 10] was 53037838 and the “spectral intensity … (protein fraction)” value ([2]; protein 47.5 μM, compound 1 μM) was 603084. For the same compound, the “spectral intensity … (protein fraction)” value [2, 11] was 8279573, the “spectral intensity … (protein fraction)” value [2, 12] was 67316791 and the “spectral intensity … (protein fraction)” value [2, 13] was 87274751.
